Measured values published in patent publication US9951366B2, “Cell-free protein synthesis method and device using a eukaryotic cell lysate in the presence of a caspase inhibitor and the use of a caspase inhibitor for increasing the yield and/or the stability of the synthesized proteins in such a method” (Fraunhofer-Gesellschaft zur Foerderung der angewandten …, priority 2013, dated 2018).
Peptide text beside a SMILES is read from it. * marks the point of attachment. Cbz = O=C(OCc1ccccc1)*; CH2F = FC*

Key:
[1] = test system: cell-free eukaryotic translation system on the basis of a cell extract from Spodoptera frugiperda (Sf21) insect cells; assay: Cell-free expression of Mel-Hb-EGF-eYFP, protein quantity in translation mixture and vesicular fraction; assay type: biochemical
Protocol: The three proteins were each expressed in the batch and dialysis systems without (−) and with (+) the addition of the caspase inhibitor (CI) in the presence of ^14C-leucine for 48 h (27° C.; 600 rpm, Eppendorf Thermomixer Comfort) and analyzed as in example 1. […] The expression of each of the three membrane proteins (ETB, 49.3 kDa; Hb-EGF, 51 kDa; bacteriorhodopsin, 26.9 kDa) was able to be increased in the dialysis system (comparison of the dialysis batches +CI and −CI) with the addition of the caspase inhibitor by approximately 100% (FIG. 2).
Here, the intention was to investigate whether the increase in the total protein quantity is also associated with an increase in the quantity of membrane protein translocated and integrated into the lipid layer of the vesicles. For this purpose, the translation mixtures of Mel-Hg-EGF-eYFP were separated by means of a centrifuging step into the supernatant fluid (SN) and the vesicular fraction (VF). Aliquots (5 μl) of these samples were used for determining the quantity of de novo synthesized protein or were investigated with regard to their fluorescence properties (FIG. 4).
FIG. 4A: The synthesis of Mel-Hb-EGF-eYFP was carried out in the batch (left) and dialysis system (right) in the absence (−) and in the presence (+) of DTT with the addition of the caspase inhibitor (Z-VAD-FMK) over 48 h at 27° C. and 600 rpm. Following the synthesis, the mixtures were separated by means of a centrifuging step into the supernatant fluid (SN) and the vesicular fraction (VF). For analysis of the fluorescence intensity of the samples, aliquots of the fractions (5 μl) were each diluted in 25 μl PBS and 25 μl of this mixture was pipetted to each cavity of the Ibidi slide and measured. Excitation of the samples was carried out at 488 nm with a phosphorimager (Typhoon TRIO+ Imager, GE Healthcare) and the emission measured at 526 nm.

[2] = test system: Mel-hEGFR-eYFP in microsomes of the insect cell lysate; assay: Multiple (repetitive) synthesis of Mel-hEGFR-eYFP into microsomes of the insect cell lysate; assay type: biochemical, Spodoptera frugiperda
Protocol: A suitable method for increasing the concentration of a particular target protein in the lumen or the membrane of the insect cell vesicles lies in carrying out multiple syntheses. This procedure leads to a longer dwell time of the de novo synthesized target proteins in the translation mixture. For successful conversion, it is therefore absolutely necessary to ensure the stability of the target proteins even after relatively long incubation times (>1.5 h) in the translation mixture. For this purpose, the caspase inhibitor Z-VAD-FMK was added to the translation reaction. The multiple synthesis of the target protein was carried out as follows: the microsomes of the translation mixture incubated under standard conditions (27° C., 1.5 h) were pelleted with a centrifugation step at 16,000 g and resuspended in a new translation-active cell lysate without microsomes and incubated again for 1.5 h at 27° C. in the presence of the caspase inhibitor Z-VAD-FMK. In the present experimental example, the synthesis was repeated four times. Following each synthesis step, the yield of radioactively labeled protein in the translation mixture, the supernatant and the vesicular fraction were determined. In addition, 5 μl of the translation mix were precipitated in acetone and subsequently separated out electrophoretically. […] The addition of the caspase inhibitor to the translation reaction enables a synthesis of the target protein over a total of 6 h.

[3] = from synthesis steps 1 to 4, in presence of Z-VAD-FMK

COC(=O)C[C@H](NC(=O)[C@H](C)NC(=O)[C@@H](NC(=O)OCc1ccccc1)C(C)C)C(=O)CF [Z-VAD-FMK, benzyloxycarbonyl-Val-Ala-Asp-[O-methyl]-fluoromethylketone] (Cbz-Val-Ala-Asp(OMe)-CH2F)
total protein quantity of Mel-Hb-EGF-eYFP ([1]; batch 48 h +CI): 12.1 µg/mL
Mel-Hb-EGF-eYFP in the vesicular fraction of the lysate ([1]; batch 48 h −DTT +CI): 6.5 µg/mL
total protein quantity of Mel-Hb-EGF-eYFP ([1]; dialysis 48 h +CI): 47.6 µg/mL
increase in total protein quantity of Mel-Hb-EGF-eYFP ([1]; dialysis 48 h +CI vs batch 48 h +CI): 300%
increase in total protein quantity of Mel-Hb-EGF-eYFP ([1]; dialysis 48 h +CI vs dialysis 48 h −CI): 130%
Mel-Hb-EGF-eYFP in the vesicular fraction of the lysate ([1]; dialysis 48 h −DTT +CI): 31.4 µg/mL
total time over which synthesis of the target protein is enabled ([2]; four repeated syntheses of 1.5 h at 27° C. in presence of caspase inhibitor): 6 h
increase of yield of target protein, total protein in the translation mixture [2, 3]: 110%
increase of yield of target protein, vesicular fraction [2, 3]: 180%
